Drawing on patent publication US6537576B1, “Biologically active composition” (Bioglan AB, priority 1998, dated 2003), this text covers solubility for one molecule.

This series can be described thus: Solubility of piroxicam in PEG400 (HPLC). The format is physicochemical. The settings on record: piroxicam in PEG400, excess stirred 2 weeks at room temperature, HPLC analysis.

For `CN1C(C(=O)Nc2ccccn2)=C(O)c2ccccc2S1(=O)=O` [piroxicam], the solubility amounted to 1.6%.
